Legend:
Test in all cases: relative viability (nuclei count vs DMSO), 5 days (fraction); higher = more cells survive
A549 = system: A549
Summary of the method: (§1)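 A single step with final 0.05% Triton X-100, 1% formaldehyde and 1 ug/ml Hoechst fixed the cells and stained nuclei 5 days after treatment. Lung cancer cell lines in 1536-well plates had been treated by pin tool the day after seeding with one drug alone or a fixed anchor-drug dose plus five library-drug doses (not always all listed) in √10 steps, and nuclei were counted on 4× images. Relative viability is the ratio of nuclei in treated wells to nuclei in vehicle wells, taken as the median of duplicate plates.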

Calu-6 = system: Calu-6
Summary of the method: as §1

EBC-1 = system: EBC-1
Summary of the method: as §1

HCC-15 = system: HCC-15
Summary of the method: as §1

IA-LM = system: IA-LM
Summary of the method: as §1

LCLC-103H = system: LCLC-103H
Summary of the method: as §1

NCI-H1299 = system: NCI-H1299
Summary of the method: as §1

NCI-H1703 = system: NCI-H1703
Summary of the method: as §1

UMC-11 = system: UMC-11
Summary of the method: as §1

| Structure (SMILES) | relative viability (A549; first compound 0.08 µM) | relative viability (A549; first compound 0.253 µM) | relative viability (A549; first compound 0.8 µM) | relative viability (A549; first compound 2.53 µM) | relative viability (Calu-6; first compound 0.08 µM) | relative viability (Calu-6; first compound 0.253 µM) | relative viability (Calu-6; first compound 0.8 µM) | relative viability (Calu-6; first compound 2.53 µM) | relative viability (EBC-1; first compound 0.08 µM) | relative viability (EBC-1; first compound 0.253 µM) | relative viability (EBC-1; first compound 0.8 µM) | relative viability (EBC-1; first compound 2.53 µM) | relative viability (HCC-15; first compound 0.08 µM) | relative viability (HCC-15; first compound 0.253 µM) | relative viability (HCC-15; first compound 0.8 µM) | relative viability (HCC-15; first compound 2.53 µM) | relative viability (IA-LM; first compound 0.08 µM) | relative viability (IA-LM; first compound 0.253 µM) | relative viability (IA-LM; first compound 0.8 µM) | relative viability (IA-LM; first compound 2.53 µM) | relative viability (LCLC-103H; first compound 0.08 µM) | relative viability (LCLC-103H; first compound 0.253 µM) | relative viability (LCLC-103H; first compound 0.8 µM) | relative viability (LCLC-103H; first compound 2.53 µM) | relative viability (NCI-H1299; first compound 0.08 µM) | relative viability (NCI-H1299; first compound 0.253 µM) | relative viability (NCI-H1299; first compound 0.8 µM) | relative viability (NCI-H1299; first compound 2.53 µM) | relative viability (NCI-H1703; first compound 0.08 µM) | relative viability (NCI-H1703; first compound 0.253 µM) | relative viability (NCI-H1703; first compound 0.8 µM) | relative viability (NCI-H1703; first compound 2.53 µM) | relative viability (UMC-11; first compound 0.08 µM) | relative viability (UMC-11; first compound 0.8 µM) | relative viability (UMC-11; first compound 2.53 µM) |
| --- | --- | --- | --- | --- | --- | --- | --- | --- | --- | --- | --- | --- | --- | --- | --- | --- | --- | --- | --- | --- | --- | --- | --- | --- | --- | --- | --- | --- | --- | --- | --- | --- | --- | --- | --- |
| Oc1nc(-c2ccc(C(F)(F)F)cc2)nc2c1CSCC2 [XAV939] + C[C@@H](Oc1cc(-c2cnn(C3CCNCC3)c2)cnc1N)c1c(Cl)ccc(F)c1Cl [Crizotinib] (partner 1 µM) | 1.07 | 0.713 | 0.693 | 0.633 | 0.822 | 0.719 | 0.7 | 0.758 | 0.213 | 0.223 | 0.165 | 0.182 | 0.968 | 0.746 | 0.823 | 0.743 | 0.792 | 0.876 | 0.398 | 0.444 | 1.07 | 0.917 | 0.984 | 0.968 | 0.94 | 0.978 | 0.956 | 0.958 | 0.787 | 0.621 | 0.77 | 0.583 | 0.777 | 0.578 | 0.414 |
| Oc1nc(-c2ccc(C(F)(F)F)cc2)nc2c1CSCC2 [XAV939] + C[C@]1(O)C[C@@H](c2nc(-c3ccc4ccc(-c5ccccc5)nc4c3)c3c(N)nccn32)C1 [Linsitinib] (partner 1 µM) | 0.696 | 0.526 | 0.486 | 0.51 | 0.981 | 1.04 | 0.953 | 0.856 | 1.02 | 0.832 | 0.809 | 0.754 | 0.923 | 0.851 | 0.859 | 0.848 | 0.565 | 0.512 | 0.505 | 0.458 | 1.05 | 0.943 | 1.19 | 1.02 | 1.03 | 0.878 | 0.948 | 0.948 | 1.31 | 1.02 | 0.969 | 0.584 | 1.25 | 0.952 | 0.854 |
| Oc1nc(-c2ccc(C(F)(F)F)cc2)nc2c1CSCC2 [XAV939] + Cc1nc(NC(=O)N2CCC[C@H]2C(N)=O)sc1-c1ccnc(C(C)(C)C(F)(F)F)c1 [Alpelisib] (partner 2 µM) | 0.877 | 0.371 | 0.484 | 0.524 | 1.08 | 0.887 | 0.919 | 0.948 | 0.874 | 0.71 | 0.716 | 0.726 | 1 | 0.939 | 0.925 | 0.946 | 0.77 | 0.693 | 0.705 | 0.557 | 0.941 | 0.766 | 0.852 | 0.873 | 1.08 | 1.04 | 1.09 | 1.11 | 0.397 | 0.301 | 0.307 | 0.324 | 1.2 | 0.971 | 0.64 |

— the supplement of paper PMC10307832
